Source: article PMC7939467, “Ascertaining the biochemical function of an essential pectin methylesterase in the gut microbe Bacteroides thetaiotaomicron” (The Journal of Biological Chemistry, 2021)
Where two headings read alike, the source gives them in different places.

Key:
[1] = target: T1, BT1017-SP (Bacteroides thetaiotaomicron, UniProt Q8A900); assay: coupled spectrophotometric methanol release assay; type: biochemical; conditions: 1.7 μM enzyme, read-out: BT1017 constructs / BT1017-SP
T1 construct: gene BT_1017
T1 sequence (Q8A900 21-653): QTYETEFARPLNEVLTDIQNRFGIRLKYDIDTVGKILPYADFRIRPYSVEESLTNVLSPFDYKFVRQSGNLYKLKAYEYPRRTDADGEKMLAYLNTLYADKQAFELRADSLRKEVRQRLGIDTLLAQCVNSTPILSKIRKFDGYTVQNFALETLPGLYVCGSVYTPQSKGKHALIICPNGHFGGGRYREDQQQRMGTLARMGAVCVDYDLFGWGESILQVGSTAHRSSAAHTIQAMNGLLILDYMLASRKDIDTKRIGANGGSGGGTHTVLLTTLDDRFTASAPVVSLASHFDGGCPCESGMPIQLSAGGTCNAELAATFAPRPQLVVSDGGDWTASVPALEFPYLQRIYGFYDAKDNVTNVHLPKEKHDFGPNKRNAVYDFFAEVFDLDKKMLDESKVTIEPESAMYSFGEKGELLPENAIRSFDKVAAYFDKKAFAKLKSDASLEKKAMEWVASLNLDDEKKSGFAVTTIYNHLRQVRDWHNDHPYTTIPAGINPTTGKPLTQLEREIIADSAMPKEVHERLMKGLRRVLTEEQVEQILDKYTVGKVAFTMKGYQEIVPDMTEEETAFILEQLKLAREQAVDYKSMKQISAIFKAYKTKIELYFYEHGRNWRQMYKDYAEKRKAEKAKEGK
From the text: coupled spectrophotometric methanol release assay on BT1017-SP

[2] = target: T2, BT1017-CM (Bacteroides thetaiotaomicron, UniProt Q8A900); assay: coupled spectrophotometric methanol release assay; type: biochemical; conditions: 1.7 μM enzyme, pH and temperature not given (optimum pH 8.5, 37 °C), read-out: BT1017 constructs / BT1017-CM
T2 construct: gene BT_1017; crystal model residues 20-462 (text also gives module as 20-400); C-terminal His6; E. coli Tuner(DE3)
T2 sequence (Q8A900 20-462): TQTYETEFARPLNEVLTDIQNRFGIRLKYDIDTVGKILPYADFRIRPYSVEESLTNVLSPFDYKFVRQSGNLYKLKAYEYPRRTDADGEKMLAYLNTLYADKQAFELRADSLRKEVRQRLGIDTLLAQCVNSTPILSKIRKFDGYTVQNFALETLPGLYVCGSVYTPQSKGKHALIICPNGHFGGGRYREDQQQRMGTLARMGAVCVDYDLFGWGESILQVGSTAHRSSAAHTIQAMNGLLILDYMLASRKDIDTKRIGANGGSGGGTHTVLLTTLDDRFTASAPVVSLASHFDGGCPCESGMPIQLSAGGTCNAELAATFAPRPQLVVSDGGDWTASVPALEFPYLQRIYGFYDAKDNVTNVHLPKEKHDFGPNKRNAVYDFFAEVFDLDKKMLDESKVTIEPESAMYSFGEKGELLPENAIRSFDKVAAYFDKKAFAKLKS
From the text: coupled spectrophotometric methanol release assay on BT1017-CM

| Substance | Km ([1]; 0.09–3.47 mM substrate, pH and temperature not given (optimum pH 8.5, 37 °C)) [µM] | Km ([2]; 0.09–3.47 mM substrate) [µM] | Km ([1]; 0.046–1.38 mM substrate, pH and temperature of the kinetics not stated (optimum pH 8.5, 37 °C)) [µM] | Km ([2]; 0.046–1.38 mM substrate) [µM] |
| --- | --- | --- | --- | --- |
| Rha-α1,3-Api-β1,2-(Araf-α1,3)-(6-O-Me-GalA-α1,4)-GalA [ΔBT1017oligoA] | 3000 ± 400 | 1000 ± 200 | – | – |
| GlcA-β1,4-(2-O-Me-Xyl-α1,3)-Fuc-α1,4-(GalA-β1,3)-Rha-α1,3-Api-β1,2-(Araf-α1,3)-(GalA-α1,4)-GalA [ΔBT1017oligoB] | – | – | 200 ± 30 | 400 ± 70 |
